Assay results published in patent US7276490B1, “Medicinal compositions containing prostacylin synthase gene” (priority 2000, dated 2007).

What was measured:
HEK-293 cells [1] = test: Apoptosis assay: X-Gal staining of β-galactosidase co-transfected cells, apoptotic morphology; assay type: cell-based, human; settings: for effect of oligonucleotide on prostacyclin-mediated apoptosis: HEK-293, HVJ-liposome method; for induction/enhancement of apoptosis by treatment with the agent: various concentrations (1, 10, 100 μM) in serum-free medium, cells expressing β-galactosidase and PGISwt or PGISC441A
Experimental: Cells were transfected with 1.0 μg of β-galactosidase expression vector using LipofectAMINE. After a fixed time, the cells were stained with X-Gal to evaluate the cells for apoptotic morphology. Apoptosis was monitored with ApoAlert caspase assay kit using Ac-DEVD-AFC substrate (Clontech). The activity was determined by using lysate pretreated with. Ac-DEVD-CHO as a control according to the supplier's instructions. The caspase activity is defined as a ratio between the caspase activity of a sample and that of lysate prepared from HEK-293 cells mock-transfected with a control plasmid.
To strictly ascertain the relationship between the expression of PGIS and apoptosis, HEK-293 cells were co-transfected with two types of expression constructs for human PGISwt and β-galactosidase. Because normal HEK-293 cells have flat morphology, it is easy to assess the cells for apoptotic changes characterized by membrane vesicle formation and cell body shrinkage. After incubation for a predetermined time following transfection, cells were stained with X-gal for β-galactosidase activity to identify cells containing the transgenes and then assessed for the apoptotic morphology. […] In HEK-293 cells, apoptosis was induced only by the expression of PGISwt without the presence of co-expression of COX-2 (FIGS. 4a and 5). The co-expression of COX-2 with PGISwt increased the number of apoptotic cells (16%). […] The level of 6-keto-PGF1α released into culture medium was correlated with the frequency of apoptosis (FIG. 6). […] Neither co-expression of PGISC441A and COX-2 nor further addition of arachidonic acid gave influence on the production 6-keto-PGF1α and morphological changes (FIGS. 5 and 6). These findings clearly indicate that prostacyclin produced by active PGIS participates in the process of apoptosis.

HEK-293 cells [2] = test: as above; assay type: cell-based, human; settings: HEK-293, HVJ-liposome method
PPAR = test: PPREx3-luciferase assay in HEK-293 cells; assay type: cell-based, human
Excerpt: The sense oligonucleotide […] CTC (SEQ ID NO: 7) and antisense oligonucleotide […] A (which contains three copies of PPRE; SEQ ID NO: 8) were synthesized and annealed together; the resulting double-stranded DNA was subcloned into PGL3-promoter vector (Promega) at the MluI-XhoI site. PPREx3-luciferase reporter vector and β-galactosidase expression vector were co-transfected into HEK-293 cells using LipofectAMINE. The activity of β-galactosidase was normalized with absorbance at 405 nm.

PPAR-δ = test: Immunoblot of PPAR-δ after oligonucleotide transfection (HVJ-liposome method); assay type: cell-based, human; settings: after 48 hours
Excerpt: A lysate prepared from cells transfected with the PPAR-δ antisense oligonucleotide (AS) was immuno-blotted using an anti-PPAR-δ monoclonal antibody; a sense oligonucleotide (S) was used as a control.
dS, which corresponds to human PPAR-δ cDNA sense sequence: 5′-CTCGGTGACTTATCCTGTG-3′ (SEQ ID NO: 3); dAS, which corresponds to human PPAR-δ cDNA antisense sequence: 5′-TCCTCTTTCTCCTCCTCTT-3′ (SEQ ID NO: 4); aS, which corresponds to human PPAR-α cDNA sense sequence: 5′-CTCGGTGACTTATCCTGTG-3′ (SEQ ID NO: 5); and aAS, which corresponds to human PPAR-α cDNA antisense sequence: 5′-CACAGGATAAGTCACCGAG-3′ (SEQ ID NO: 6). These oligonucleotides were transfected into cells by HVJ-liposome method. Each oligonucleotide (22 μg) was combined with a nuclear protein and high mobility group (HMG)-1. HVJ-liposome was prepared by combining dry lipid (phosphatidyl serine/phosphatidyl choline/cholesterol (1:4.8:2 w/w/w)) with ultraviolet light-inactivated HVJ virus (viruses). After incubation and centrifugation with a sucrose-density gradient, the top layer was collected for transfection. 48 hours after transfection, cells in which the expression of endogenous PPAR-δ had been suppressed were used in PPREx3-luciferase assay and apoptosis assay.

cAMP = test: Intracellular level of cAMP accumulated in transfected cells; assay type: cell-based, human; settings: Iloprost at various concentrations, serum-free medium
Experimental: FIG. 8 illustrates a diagram showing the intracellular level of cAMP accumulated in cells in serum-free medium containing Iloprost at the concentrations indicated (0, 1, 10, or 100 μM). The cells were transfected with expression plasmids for PGISwt, PGISC441A, or a mock control expression plasmid and β-galactosidase expression plasmid. After 17 hours, the medium was changed with serum-free medium containing Iloprost at various concentrations (0, 1, 10, or 100 μm). All results were obtained from three sets of experiments (n=3) and are presented as mean±S.D.

HEK-293 cells [3] = test: Distribution of 3H-Iloprost in membrane, cytosol and nuclear fractions; assay type: in vitro ADME, human; settings: 100 μM 3H-Iloprost, 24 hours
Experimental: FIG. 14 is a diagram showing the influence of the expression of PGIS on PPAR activation. The permeability of Iloprost was evaluated by using ^3H-Iloprost. HEK-293 cells were cultured in DMEM containing 100 μM ^3H-Iloprost for 24 hours. Cell membrane, cytosol, and nuclear fractions were prepared from the cells, and then the distribution of ^3H-Iloprost was determined using the fractions. The results were obtained from three sets of experiments (n=3) and are presented as mean±S.D.

recombinant PPAR = settings: added to medium; cited from earlier work
HEK-293 cells [4] = test: Double-staining with anti-PGIS antibody and Hoechst 33258 (chromatin condensation); assay type: cell-based, human; settings: 100 μM; HEK-293 cells expressing PGIS; data not shown
Experimental: Cultured monolayer cells of human fetal kidney-derived HEK-293 cell line (ATCC CRL-1573) were harvested and plated in Dulbecco's modified Eagle's medium containing 10% bovine fetal serum (FBS), 100 U/ml penicillin, and […] streptomycin (3×10^5 cells/60-mm dish). 24 hours after incubation, the cells were transfected with 3 μg of any one of PGISwt (described below), PGISC441A (described below), or control vector pCMV7 (generous gift from Texas University; Andersson, S. et al., J. Biol. Chem., 264, 8222-8229 (1989): this can be replaced with pcDNA3 (Invitrogen; catalogue number: #A-150228)) and […] of pvA (plasmid encoding adenovirus-associated RNA1) using LipofectAMINE (Gibco-BRL). 5 hours after transfection, the cells were rinsed twice with phosphate-buffered physiological saline (PBS), and the fresh medium was added thereto. After gene transfer, the cells were cultured for 48 to 60 hours in total. Then, the cells were rinsed with PBS, and fixed with 3.7% formaldehyde for 10 minutes. The cells fixed were washed three times with PBS, and then incubated with the anti-PGIS antibody P4 for 2 hours. After being washed three times with PBS containing 2% FBS, the cells were incubated with anti-rabbit Ig-Texas Red at 37° C. for 1 hour and stained with […] Hoechst 33258 at room temperature for 15 minutes.

5′-CACAGGATAAGTCACCGAG-3′ (listed as DNA, chemistry not given here) [antisense oligonucleotide PPAR-α]
effect of oligonucleotide on prostacyclin-mediated apoptosis (HEK-293 cells [1]): apoptosis was not inhibited | changes in the oligonucleotide-treated cells (viability, morphology) (HEK-293 cells [2]): cell viability declined

5′-CTCGGTGACTTATCCTGTG-3′ (listed as DNA, chemistry not given here) [PPAR-α sense oligonucleotide]
changes in the oligonucleotide-treated cells (viability, morphology) (HEK-293 cells [2]): no marked changes

5′-TCCTCTTTCTCCTCCTCTT-3′ (listed as DNA, chemistry not given here) [PPAR-δ antisense oligonucleotide]
effect of oligonucleotide on prostacyclin-mediated apoptosis (HEK-293 cells [1]): significantly blocked | activity of luciferase co-expressed with PGISwt in oligonucleotide-treated cells (PPAR; HEK-293): significantly decreased | production of PPAR-δ protein (PPAR-δ): suppressed | changes in the oligonucleotide-treated cells (viability, morphology) (HEK-293 cells [2]): normal morphology | number of cells after oligonucleotide treatment (HEK-293 cells [2]): increased

CC1CNCCN1S(=O)(=O)c1cccc2cnccc12 (centres unmarked) [H-7]
effect on prostacyclin-mediated apoptosis (HEK-293 cells [1]; H-7 1, 10, 100 μM in serum-free medium, FIG. 10): did not block but enhanced

CC#CCC(C)[C@H](O)/C=C/[C@@H]1[C@H]2C/C(=C/CCCC(=O)O)C[C@H]2C[C@H]1O (some centres unmarked) [Iloprost]
induction/enhancement of apoptosis by treatment with the agent (HEK-293 cells [1]): apoptosis was not induced | intracellular cAMP (cAMP): accumulated | activity of PPRE-luciferase on treatment (PPAR; 1 to 100 μM added to medium, endogenous PPAR): could not increase | Iloprost taken up by HEK-293 cells (HEK-293 cells [3]): very little | share of the Iloprost incorporated that is localized on cell membrane (HEK-293 cells [3]): > 99% | activation of recombinant PPAR overexpressed in CV-1 cells (recombinant PPAR): results in activation

CCCCC[C@H](O)/C=C/[C@@H]1[C@@H](C/C=C\CCCC(=O)O)[C@H]2CO[C@@H]1C2 [U46619]
Hoechst 33258-positive cells (HEK-293 cells [4]): 32%

CCCCC/C=C\C/C=C\C/C=C\C/C=C\CCCC(=O)O [arachidonic acid]
apoptosis on addition to the medium (HEK-293 cells [1]; HEK-293 cells expressing both PGISwt and COX-2): induction of apoptosis in almost all the cells

CC(=O)Oc1ccccc1C(=O)O [aspirin]
Hoechst 33258-positive cells (HEK-293 cells [4]): 48%

CCCC(=O)Nc1ncnc2c1ncn2[C@@H]1O[C@@H]2COP(=O)(O)O[C@H]2[C@H]1OC(=O)CCC [dbcAMP, dibutyryl-cAMP]
induction/enhancement of apoptosis by treatment with the agent (HEK-293 cells [1]): apoptosis was not enhanced

CCCCC[C@H](O)/C=C/[C@@H]1[C@H]2C/C(=C/CCCC(=O)O)O[C@H]2C[C@H]1O [prostacyclin]
activation of recombinant PPAR overexpressed in CV-1 cells (recombinant PPAR): could not activate
